Experimental data published in paper PMC9688475, “Identification and Analysis of Small Molecule Inhibitors of CRISPR-Cas9 in Human Cells” (Cells, 2022).

Experiments:
SpCas9 [1] = target: T1, SpCas9 (Streptococcus pyogenes serotype M1, UniProt Q99ZW2); test: Inhibition of SpCas9 nuclease activity in EGFP/iCas9/gRNA-EGFP reporter 293T cells (flow cytometry); format: cell-based; set-up: expressed in transfected cells; host or cells: H2AX-EGFP HEK293T cells, lentiviral transduction, doxycycline-induced
T1 sequence (Q99ZW2 whole entry): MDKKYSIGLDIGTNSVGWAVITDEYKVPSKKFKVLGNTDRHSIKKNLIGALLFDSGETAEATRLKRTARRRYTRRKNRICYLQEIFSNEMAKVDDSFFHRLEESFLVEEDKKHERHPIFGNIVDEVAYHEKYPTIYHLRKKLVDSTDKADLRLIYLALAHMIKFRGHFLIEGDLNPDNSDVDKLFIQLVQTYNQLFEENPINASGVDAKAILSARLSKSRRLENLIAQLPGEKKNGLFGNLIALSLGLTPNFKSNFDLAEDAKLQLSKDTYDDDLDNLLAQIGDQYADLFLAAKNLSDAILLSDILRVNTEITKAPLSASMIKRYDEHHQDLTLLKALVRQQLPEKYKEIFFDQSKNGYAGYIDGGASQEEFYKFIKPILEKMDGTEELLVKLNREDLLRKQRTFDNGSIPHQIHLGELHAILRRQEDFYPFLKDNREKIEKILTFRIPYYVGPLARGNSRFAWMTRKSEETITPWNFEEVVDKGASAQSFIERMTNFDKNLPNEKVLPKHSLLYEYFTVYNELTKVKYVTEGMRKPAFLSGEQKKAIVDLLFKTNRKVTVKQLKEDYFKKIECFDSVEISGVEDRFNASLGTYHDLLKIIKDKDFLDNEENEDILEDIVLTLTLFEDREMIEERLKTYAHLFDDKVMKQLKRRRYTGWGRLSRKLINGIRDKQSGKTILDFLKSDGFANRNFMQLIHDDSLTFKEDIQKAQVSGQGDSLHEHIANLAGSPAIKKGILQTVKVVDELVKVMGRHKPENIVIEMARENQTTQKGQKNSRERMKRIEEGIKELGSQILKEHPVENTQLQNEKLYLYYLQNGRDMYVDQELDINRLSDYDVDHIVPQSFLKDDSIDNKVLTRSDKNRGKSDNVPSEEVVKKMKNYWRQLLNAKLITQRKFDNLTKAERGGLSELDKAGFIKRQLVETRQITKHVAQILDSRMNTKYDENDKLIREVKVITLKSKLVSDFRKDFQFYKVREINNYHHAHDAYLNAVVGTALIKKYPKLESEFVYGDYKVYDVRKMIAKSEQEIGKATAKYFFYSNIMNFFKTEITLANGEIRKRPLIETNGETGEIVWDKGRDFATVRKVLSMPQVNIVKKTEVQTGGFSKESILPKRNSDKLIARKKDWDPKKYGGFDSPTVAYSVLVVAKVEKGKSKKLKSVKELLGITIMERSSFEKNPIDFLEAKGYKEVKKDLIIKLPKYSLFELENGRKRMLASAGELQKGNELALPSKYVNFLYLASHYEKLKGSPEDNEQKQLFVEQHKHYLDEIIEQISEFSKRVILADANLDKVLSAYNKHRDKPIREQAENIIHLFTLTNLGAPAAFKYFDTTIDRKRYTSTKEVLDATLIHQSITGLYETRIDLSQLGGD
Excerpt: The H2AX-EGFP 293T cell line was first generated using the previously reported MMEJ-mediated CRIS-PITCh system. Briefly, we cloned two gRNAs (Supplementary Table S3) that respectively target H2AX gene and the PITCh vector into the px330 plasmid (Addgene, #42230). The PITCh vector contains a pair of 20-bp homologous sequences targeting the upstream and downstream regions of the H2AX gRNA cleavage site, and the SFB-EGFP expression cassette. The three plasmids were co-transfected into 293T cells at an equimolar ratio. GFP-positive cells were sorted by FACS and individually expanded to isolate single clones for genomic DNA extraction and PCR verification of successful knock-in (KI) of the SFB-EGFP cassette into 5′-end of first exon of the H2AX gene. The selected H2AX-EGFP 293T cell clone was subsequently infected with lentiviruses encoding tetracycline-inducible SpCas9 (iCas9). After drug selection, individual clones were again expanded and verified for inducible Cas9 expression. The selected clone was subsequently infected with lentivirus encoding a gRNA that targets EGFP. Puromycin-resistant clones ([…], Thermo Fisher Scientific) were then isolated after >7 days for further analysis.

[2] = test system: EGFP expression in uninduced reporter 293T cells; test: EGFP expression in uninduced reporter 293T cells; format: cell-based, human; settings: for effect on EGFP expression in uninduced cells: 40 μM
Description: The reporter 293T cells were seeded into 96-well plates at a density of 10,000 cells per well and cultured overnight before the addition of DMSO alone or various compounds (in DMSO solution) at appropriate concentrations (0.125–100 μM) with or without 2 μg/mL doxycycline for an additional 72 h of incubation. The cells were then harvested for analysis with the CytoFLEX flow cytometer (Beckman Coulter, Brea, CA, USA) or analyzed by western blot with antibodies as indicated. […] The inhibiting efficiency in reporter 293T cells was calculated using the following equation: E’ = (P2 − P1)/(P0 − P1) × 100%, where E’ is the inhibiting efficiency in reporter 293T cells, and P0, P1, and P2 are the GFP positive cell ratio of the uninduced group, Dox and DMSO treated control group, and Dox and compound treated group, respectively.

[3] = test system: Streptococcus pyogenes Cas9 (SpCas9); settings: inhibits SpCas9 by blocking its binding to DNA; ref [33]; cited from earlier work
SpCas9 [4] = target: T1, SpCas9; test: SpCas9 in vitro DNA cleavage assay; format: biochemical; set-up: His6 (N); TEV site (N); made in house; host or cells: E. coli BL21 Star (DE3)
Description: The assay was carried out in NEBuffer 3 (New England Biolabs, Ipswich, MA, USA). First, 19.2 μL of the SpCas9–gRNA (58.8 nM) mixture was incubated with 2.4 μL of various compounds (dissolved in DMSO) at desired concentrations (0.1–2 mM) at room temperature for 10 min. Then, 2.4 μL of 3.48 nM ApaI-linearized px458 plasmid was added for further incubation at 37 °C for 60 min. The reaction was terminated by adding 0.5 μL Proteinase K (20 mg/mL) (Invitrogen) and incubation at 55 °C for 15 min. The reaction products were resolved on a 0.7% TAE agarose gel, stained with Gel Red (Biotium, Fremont, CA, USA). Then the products were visualized by Chemidoc XRS plus system (Bio-Rad, Hercules, CA, USA), and band intensities were quantified using ImageJ software (National Institutes of Health developed; Bethesda, MD, USA). The inhibition efficiency in the cleavage assays was calculated using the following equation: E = (C1 − C2)/C1 × 100%, where E is the inhibition efficiency, and C1 and C2 are the cleavage rate of the DMSO group and compound treated group, respectively.
The cleavage rate was calculated using the following equation:C = (B1 + B2)/(B0 + B1 + B2) × 100%, where C is the cleavage rate, B0, B1, and B2 are the band intensities of uncleaved products, upper cleaved products, and lower cleaved products, respectively.

XbaI = XbaI in vitro cleavage assay; format: biochemical; settings: compound 200 μM
Description: (§1) In vitro cleavage experiments used commercial restriction enzymes (Thermo Fisher Scientific). The restriction enzyme NotI or XbaI (0.1 μL) was mixed with the compounds in a FastDigest buffer (Thermo Fisher Scientific). It was then incubated at room temperature for 10 min, and an ApaI-linearized px458 plasmid was added and reacted at 37 °C for 15 min. The samples were mixed with a DNA loading buffer. The cleavage products were electrophoresed on 1% TAE agarose gel and imaged using a Bio-Rad gel imager.

NotI = NotI in vitro cleavage assay; format: biochemical; settings: compound 200 μM
Description: as §1

O=C(Oc1ccc(/C=N/Nc2ccccc2)cc1)c1cc([N+](=O)[O-])cc([N+](=O)[O-])c1 [SP32]
SpCas9 inhibition in reporter cells (SpCas9 [1]; 10 μM, Dox 2 μg/mL, 72 h): less than 50% | SpCas9 inhibition in reporter cells (SpCas9 [1]; 40 μM, Dox 2 μg/mL, 72 h): > 50%

O=C1CCCC/C1=N\Nc1ccc([N+](=O)[O-])cc1 [SP6]
SpCas9 inhibition in reporter cells (SpCas9 [1]; 40 μM, Dox 2 μg/mL, 72 h): less than 50%

CC1=NN(c2ccccc2)C(=O)C1N=Nc1nc2ccccc2s1 (stereo not drawn) [SP29]
effect on EGFP expression in uninduced cells ([2]; uninduced): reduce EGFP expression (albeit slightly) | SpCas9 inhibition in reporter cells (SpCas9 [1]; 10 μM, Dox 2 μg/mL, 72 h): 50%

O=C1CCCC/C1=N/Nc1ccc(OC2CCCCC2)cc1 [SP9]
SpCas9 inhibition in reporter cells (SpCas9 [1]; 10 μM, Dox 2 μg/mL, 72 h): less than 50% | SpCas9 inhibition in reporter cells (SpCas9 [1]; 40 μM, Dox 2 μg/mL, 72 h): > 50%

CCCCOC(=O)c1ccc(NN=c2c(=O)c3ccccc3c2=O)cc1 [SP11]
SpCas9 inhibition in reporter cells (SpCas9 [1]; 40 μM, Dox 2 μg/mL, 72 h): less than 50%

BRD0539
IC50 [3]: 22 µM

O=C(C=NNc1ccc(Cl)cc1)c1ccc(Br)cc1 [C12b, 1-(4-bromophenyl)-2-(2-(4-chlorophenyl)hydrazono)ethanone]
melting point: 235.2 to 237.2 °C | inhibitory activity in in vitro SpCas9 cleavage (in words) (SpCas9 [4]; compound 200 μM): strong inhibitory activities | inhibition at 200 µM (SpCas9 [4]; read-out: inhibition rate, in vitro SpCas9 cleavage): 89%

1-(2-(4-nitrophenyl) hydrazono)-4-bromo-acetophenone [C12]
activity of XbaI (XbaI): not affected | activity of NotI (NotI): not affected | effect on EGFP expression in the absence of Dox induction ([2]; 100 μM, reporter cells, no Dox): no effects | inhibition rate, in vitro SpCas9 cleavage (SpCas9 [4]; compound 200 μM, SpCas9–gRNA 58.8 nM, linearized plasmid 3.48 nM): 84% | efficiency of SpCas9 inhibition in reporter cells (SpCas9 [1]; 100 μM, Dox 2 μg/mL, 72 h): 17.1%

O=C1CCCC/C1=N\Nc1ccc(OCc2ccccc2)cc1 [SP19]
SpCas9 inhibition in reporter cells (SpCas9 [1]; 40 μM, Dox 2 μg/mL, 72 h): less than 50%

Cc1nc2ccc(N=NC3=C(O)CCCC3=O)cc2s1 [SP33]
SpCas9 inhibition in reporter cells (SpCas9 [1]; 40 μM, Dox 2 μg/mL, 72 h): less than 50%

O=C(C(=NNc1ccc([N+](=O)[O-])cc1)n1cncn1)c1ccc(F)cc1F [C12d, 1-(2,4-difluorophenyl)-2-(2-(4-nitrophenyl)hydrazono)-2-(1H-1,2,4-triazol-1-yl)ethanone]
inhibitory activity in in vitro SpCas9 cleavage (in words) (SpCas9 [4]; compound 200 μM): weakly inhibited

Cc1ccc(C(=O)/C(C#N)=N\Nc2ccc([N+](=O)[O-])cc2)cc1 [SP15]
effect on EGFP expression in uninduced cells ([2]; uninduced): reduce EGFP expression (albeit slightly) | SpCas9 inhibition in reporter cells (SpCas9 [1]; 10 μM, Dox 2 μg/mL, 72 h): 50%

CCC(=O)C=NNc1ccc([N+](=O)[O-])cc1 [C9, 1-(2-(4-nitrophenyl) hydrazono)butanone]
melting point: 190.3 to 191.7 °C

COc1ccc(C(=O)/C(C#N)=N/Nc2ccccc2[N+](=O)[O-])cc1 [SP14]
effect on EGFP expression in uninduced cells ([2]; uninduced): reduce EGFP expression (albeit slightly) | SpCas9 inhibition in reporter cells (SpCas9 [1]; 10 μM, Dox 2 μg/mL, 72 h): 50%

Cc1cccc(N/N=C(/C#N)C(=O)c2ccc(Br)cc2)c1 [SP12]
SpCas9 inhibition in reporter cells (SpCas9 [1]; 10 μM, Dox 2 μg/mL, 72 h): less than 50% | SpCas9 inhibition in reporter cells (SpCas9 [1]; 40 μM, Dox 2 μg/mL, 72 h): > 50%

O=C(C=NNc1cc([N+](=O)[O-])ccc1O)c1ccc(Br)cc1 [C12c, 1-(4-bromophenyl)-2-(2-(2-hydroxy-5-nitrophenyl)hydrazono)ethanone]
effect on EGFP expression in uninduced reporter 293T cells ([2]; uninduced, concentration not given): did not negatively affect | melting point: 246.6 to 247.2 °C | inhibitory activity in in vitro SpCas9 cleavage (in words) (SpCas9 [4]; compound 200 μM): weakly inhibited | inhibition at 40 µM (SpCas9 [1]; HEK-293T, read-out: SpCas9 inhibition in reporter cells): ~50%

CC1(C)CC(=O)C(N=Nc2ccc3ncsc3c2)=C(O)C1 [SP36]
SpCas9 inhibition in reporter cells (SpCas9 [1]; 40 μM, Dox 2 μg/mL, 72 h): less than 50%

COc1cc(Cl)ccc1N=NC1C(=O)N(c2ccccc2)N=C1C (stereo not drawn) [SP28]
SpCas9 inhibition in reporter cells (SpCas9 [1]; 40 μM, Dox 2 μg/mL, 72 h): less than 50%

O=C1CCCC/C1=N/Nc1ccc(N2CCCCC2)cc1 [SP5]
SpCas9 inhibition in reporter cells (SpCas9 [1]; 40 μM, Dox 2 μg/mL, 72 h): less than 50%

CCOC(=O)c1oc2c(c1C)/C(=N\Nc1ccc([N+](=O)[O-])cc1)CCC2 [SP34]
SpCas9 inhibition in reporter cells (SpCas9 [1]; 40 μM, Dox 2 μg/mL, 72 h): less than 50%

COc1ccc(C(=O)Oc2ccccc2/C=N\Nc2ccc([N+](=O)[O-])cc2)cc1 [SP8]
SpCas9 inhibition in reporter cells (SpCas9 [1]; 40 μM, Dox 2 μg/mL, 72 h): less than 50%
